Tested on: 2′3′-cGAMP
Test: 2′3′-cGAMP ELISA in IMR90 cells
Format: cell-based, human
Details: senescent IMR90 cells with HMGB2 knockdown
Experimental: 2′ 3′-cGAMP ELISA Kit (Cayman chemical. Cat. No:501700) was used to analyze the endogenous level of 2′ 3′-cGAMP following the manufacturer's instructions. 1×10^5 IMR90 cells were incubated in 200 μL lysis buffer (ThermoFisher, Cat. No: 78501) on ice for 30 minutes. The 2′ 3′-cGAMP ELISA was performed following the manufacturer's instructions.

CC[C@@]1(O)C(=O)OCc2c1cc1n(c2=O)Cc2cc3ccccc3nc2-1 [CPT, Camptothecin]
2′3′-cGAMP levels: rescued
